21 compounds from patent US9957264B2 (Merck Sharp & Dohme Corp., priority 2013, dated 2018) can be followed below.

For assay [1], the target named is JAK2 (recombinant purified GST-tagged catalytic domain) (Homo sapiens (Human), UniProt O60674). As to the kind of experiment: Jak Biochemical HTRF Assay (JAK2). The settings on record: [ATP] 8.5 μM. A general note: Time-resolved FRET reads energy transfer from a long-lived donor to a nearby acceptor.
Assay [2] addresses JAK1 (recombinant purified GST-tagged catalytic domain) (Homo sapiens (Human), UniProt P23458). As to the kind of experiment: Jak Biochemical HTRF Assay (JAK1). The settings on record: [ATP] 31.8 μM. Put shortly: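 Kinase reaction with biotinylated peptide substrate was started by ATP addition and run 120 min at room temperature, then quenched with EDTA stop buffer containing streptavidin-Dylight 650 and Eu-pY20 antibody. HTRF read 60 min later (665/615 nm ratio); percent inhibition vs log concentration fit to 4-parameter curve for IC50.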

Sequence of JAK2 (recombinant purified GST-tagged catalytic domain) (O60674 849-1124): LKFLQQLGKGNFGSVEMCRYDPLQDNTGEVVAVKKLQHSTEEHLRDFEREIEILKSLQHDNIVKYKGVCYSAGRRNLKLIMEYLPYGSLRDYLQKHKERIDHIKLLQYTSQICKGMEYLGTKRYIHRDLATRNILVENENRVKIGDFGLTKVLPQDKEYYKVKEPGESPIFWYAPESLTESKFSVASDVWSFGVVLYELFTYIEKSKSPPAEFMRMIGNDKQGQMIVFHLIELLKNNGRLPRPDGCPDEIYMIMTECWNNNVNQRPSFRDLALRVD
Sequence of JAK1 (recombinant purified GST-tagged catalytic domain) (P23458 875-1153): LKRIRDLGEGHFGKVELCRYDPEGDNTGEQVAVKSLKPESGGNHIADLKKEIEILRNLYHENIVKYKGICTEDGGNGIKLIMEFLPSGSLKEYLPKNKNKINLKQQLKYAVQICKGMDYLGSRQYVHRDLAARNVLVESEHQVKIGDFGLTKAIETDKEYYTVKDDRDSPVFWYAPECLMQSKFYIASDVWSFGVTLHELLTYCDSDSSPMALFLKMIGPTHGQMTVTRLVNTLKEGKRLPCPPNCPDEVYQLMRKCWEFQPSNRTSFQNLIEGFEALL

The term IC50 denotes the concentration that inhibits the measured activity by half. Consider `CS(=O)(=O)c1ccc(Nc2nn([C@]3(CC#N)CCCOC3)c3cc[nH]c(=O)c23)cc1` [Example 5-31, (S)-2-(3-(3-((4-(methylsulfonyl)phenyl)amino)-4-oxo-4,5-dihydro-1H-pyrazolo [4,3-c]pyridin-1-yl)tetrahydro-2H-pyran-3-yl)acetonitrile], for which the half-maximal inhibitory concentration (IC50) in assay [1] was 1.64 nM; in assay [2], 0.26 nM.

In the case of `CC(C)(C)N[C@H](c1ccc(Nc2nn([C@]3(CC#N)CCOC[C@@H]3F)c3cc[nH]c(=O)c23)cc1)C(F)(F)F` (single isomer, unassigned) [Example 5-269, 2-((3R,4R or 3S,4S)-4-(3-((4-((R or S)-1-(tert-butylamino)-2,2,2-trifluoroethyl)phenyl)amino)-4-oxo-4,5-dihydro-1H-pyrazolo[4,3-c]pyridin-1-yl)-3-fluorotetrahydro-2H-pyran-4-yl)acetonitrile], the concentration for half-maximal inhibition (IC50) in assay [1] was found to be 0.09 nM; in assay [2] it was 0.11 nM.

As to `Cc1cc(C)cc(Nc2nn(C3(CC#N)CCN(C(=O)OC(C)(C)C)CC3)c3cc[nH]c(=O)c23)c1` [Example 5-61, tert-butyl 4-(cyanomethyl)-4-(3-(3,5-dimethylphenylamino)-4-oxo-4,5-dihydropyrazolo[4,3-c]pyridin-1-yl)piperidine-1-carboxylate], the IC50 in assay [1] was 12.7 nM; in assay [2], 0.64 nM.

For the compound `CCS(=O)(=O)c1ccc(Nc2nn(C3(CC#N)CCCC3)c3cc[nH]c(=O)c23)cc1` [Example 5-133, 2-(1-(3-((4-(ethylsulfonyl)phenyl)amino)-4-oxo-4,5-dihydro-1H-pyrazolo[4,3-c]pyridin-1-yl)cyclopentyl) acetonitrile], the IC50 in assay [1] is 1.38 nM; in assay [2], 0.44 nM.

For the compound `CC(C)(C)OC(=O)CN1Cc2cc(Nc3nn([C@]4(CC#N)CCCOC4)c4cc[nH]c(=O)c34)ccc2S1(=O)=O` [Example 5-185, tert-butyl [5-({1-[(3S)-3-(cyanomethyl)tetrahydro-2H-pyran-3-yl]-4-oxo-4,5-dihydro-1H-pyrazolo[4,3-c]pyridin-3-yl}amino)-1,1-dioxido-1,2-benzisothiazol-2(3H)-yl]acetate], the results for the IC50 in assay [1] and in assay [2] were 1.5 nM and 0.08 nM, respectively.

Turning to `CC(C)(C)OC(=O)[C@@H]1CC[C@](CC#N)(n2nc(Nc3ccc(S(C)(=O)=O)cc3)c3c(=O)[nH]ccc32)CO1` (racemic) [Example 5-35, (2R,5S and 2S,5R)-tert-butyl 5-(cyanomethyl)-5-(3-((4-(methylsulfonyl)phenyl)amino)-4-oxo-4,5-dihydro-1H-pyrazolo [4,3-c]pyridin-1-yl) tetrahydro-2H-pyran-2-carboxylate], the IC50 came to 29.3 nM in assay [1] and 3.43 nM in assay [2].

As for `N#CC[C@@]1(n2nc(Nc3ccc(C(N4CCCC4)C(F)(F)F)cc3)c3c(=O)[nH]ccc32)CCCOC1` (single isomer, unassigned) [Example 5-199, {(3S)-3-[4-oxo-3-({4-[(1S or 1R)-2,2,2-trifluoro-1-pyrrolidin-1-ylethyl]phenyl}amino)-4,5-dihydro-1H-pyrazolo[4,3-c]pyridin-1-yl]tetrahydro-2H-pyran-3-yl}acetonitrile], the IC50 in assay [1] turned out to be 0.33 nM; in assay [2] it was 0.15 nM.

In the case of `CC(C)(C)OC(=O)N1CC(CC#N)(n2nc(NC3CC3)c3c(=O)[nH]ccc32)C1` [Example 3, tert-butyl 3-(cyanomethyl)-3-[3-(cyclopropylamino)-4-oxo-4,5-dihydro-1H-pyrazolo[4,3-c]pyridin-1-yl]azetidine-1-carboxylate], the values for the IC50 in assay [1] and in assay [2] were 2.51 nM and 40.8 nM, respectively.

Turning to `COCC(C)OC(=O)N1CCC(CC#N)(n2nc(Nc3ccc(S(=O)(=O)N(C)C)cc3)c3c(=O)[nH]ccc32)CC1` (stereo not drawn) [Example 11-5, 1-methoxypropan-2-yl 4-(cyanomethyl)-4-(3-((4-(N,N-dimethylsulfamoyl)phenyl)amino)-4-oxo-4,5-dihydro-1H-pyrazolo[4,3-c]pyridin-1-yl)piperidine-1-carboxylate], the figures for the IC50 in assay [1] and in assay [2] were 0.61 nM and 0.27 nM, respectively.

On to `CC(F)(F)C(=O)N1CCC(CC#N)(n2nc(Nc3ccc(S(=O)(=O)C(C)(C)C)cc3)c3c(=O)[nH]ccc32)CC1` [Example 5-59, 2-(4-(3-((4-(tert-butylsulfonyl)phenyl)amino)-4-oxo-4,5-dihydro-1H-pyrazolo[4,3-c]pyridin-1-yl)-1-(2,2-difluoro-propanoyl)piperidin-4-yl)acetonitrile], for which the IC50 in assay [1] stood at 0.15 nM; in assay [2], 0.1 nM.

`CC(C)(C)OC(=O)N1CC[C@@](CC#N)(n2nc(Nc3ccc(S(C)(=O)=O)cc3)c3c(=O)[nH]ccc32)[C@H](F)C1` (single isomer, unassigned) [Example 5-15, tert-butyl (3R,4S or 3S,4R)-4-(cyanomethyl)-3-fluoro-4-(3-{[4-(methylsulfonyl)phenyl]amino}-4-oxo-4,5-dihydro-1H-pyrazolo[4,3-c]pyridin-1-yl)piperidine-1-carboxylate]: the IC50 in assay [1] was 3.45 nM; in assay [2], 0.27 nM.

In the case of `N#CCC1(n2nc(Nc3ccc(C#N)cc3)c3c(=O)[nH]ccc32)CCCC1` [Example 5-124, 4-((1-(1-(cyanomethyl)cyclopentyl)-4-oxo-4,5-dihydro-1H-pyrazolo[4,3-c]pyridin-3-yl)amino) benzonitrile], the results for the IC50 in assay [1] and in assay [2] were 3.69 nM and 0.58 nM, respectively.

Take `CN(C)CC(=O)N1CCC(CC#N)(n2nc(Nc3ccc(S(=O)(=O)N(C)C)cc3)c3c(=O)[nH]ccc32)CC1` [Example 9-4, 4-({1-[4-(cyanomethyl)-1-(N,N-dimethylglycyl)piperidin-4-yl]-4-oxo-4,5-dihydro-1H-pyrazolo[4,3-c]pyridin-3-yl}amino)-N,N-dimethylbenzenesulfonamide]: the 50% inhibitory concentration (IC50) in assay [1] came out at 5.17 nM; in assay [2] it was 0.65 nM.

As to `CN1Cc2cc(Nc3nn([C@]4(CC#N)CC[C@@H](N(C)C)CC4)c4cc[nH]c(=O)c34)ccc2S1(=O)=O` [Example 18-34, Trans 2-(4-(Dimethylamino)-1-(3-((2-methyl-1,1-dioxido-2,3-dihydrobenzo-[d]isothiazol-6-yl)amino)-4-oxo-4,5-dihydro-1H-pyrazolo[4,3-c]pyridin-1-yl)cyclohexyl)acetonitrile], the half-maximal inhibitory concentration (IC50) stood at 12.1 nM in assay [1] and 1.07 nM in assay [2].

Regarding `CCC(C)(C)S(=O)(=O)c1ccc(Nc2nn([C@]3(CC#N)CCCOC3)c3cc[nH]c(=O)c23)cc1` [Example 5-196, {(3S)-3-[3-({4-[(1,1-dimethylpropyl)sulfonyl]phenyl}amino)-4-oxo-4,5-dihydro-1H-pyrazolo[4,3-c]pyridin-1-yl]tetrahydro-2H-pyran-3-yl}acetonitrile], the IC50 in assay [1] was determined as 0.33 nM; in assay [2], 0.15 nM.

As for `CO[C@H](c1ccc(Nc2nn([C@]3(CC#N)CC[C@@H](C(=O)OC(C)(C)C)OC3)c3cc[nH]c(=O)c23)cc1)C(F)(F)F` (single isomer, unassigned) [Example 21-7, (2S,5S)-tert-butyl 5-(cyanomethyl)-5-(4-oxo-3-((4-((R or S)-2,2,2-trifluoro-1-methoxyethyl)phenyl)amino)-4,5-dihydro-1H-pyrazolo[4,3-c]pyridin-1-yl)tetrahydro-2H-pyran-2-carboxylate], the half-maximal inhibitory concentration (IC50) in assay [1] came to 0.9 nM; in assay [2], 0.41 nM.

Regarding `N#CC[C@]1(n2nc(Nc3ccc(S(=O)(=O)C(F)F)cc3)c3c(=O)[nH]ccc32)CC[C@H](N2CC(F)C2)CC1` [Example 18-28, Trans 2-(1-(3-((4-((difluoromethyl)sulfonyl)phenyl)amino)-4-oxo-4,5-dihydro-1H-pyrazolo[4,3-c]pyridin-1-yl)-4-(3-fluoroazetidin-1-yl)cyclohexyl)acetonitrile], the values for the IC50 in assay [1] and in assay [2] were 0.11 nM and 0.05 nM, respectively.

Regarding `CC(C)(C)OC(=O)N1CCC(CC#N)(n2nc(Nc3ccc4c(c3)CN(CC(F)(F)F)C4=O)c3c(=O)[nH]ccc32)CC1` [Example 5-5, tert-butyl 4-(cyanomethyl)-4-(4-oxo-3-{[1-oxo-2-(2,2,2-trifluoroethyl)-2,3-dihydro-1H-isoindol-5-yl]amino}-4,5-dihydro-1H-pyrazolo[4,3-c]pyridin-1-yl)piperidine-1-carboxylate], the values for the IC50 in assay [1] and in assay [2] were 0.31 nM and 0.28 nM, respectively.

With `CN(C)S(=O)(=O)c1ccc(Nc2nn(C3(CC#N)CCN(C(=O)CC(F)(F)F)CC3)c3cc[nH]c(=O)c23)cc1` [Example 9-2, 4-({1-[4-(cyanomethyl)-1-(3,3,3-trifluoropropanoyl)piperidin-4-yl]-4-oxo-4,5-dihydro-1H-pyrazolo[4,3-c]pyridin-3-yl}amino)-N,N-dimethylbenzenesulfonamide], the IC50 in assay [1] was 0.31 nM; in assay [2], 0.08 nM.

With `CN(C(=O)[C@@H]1CC[C@@](CC#N)(n2nc(Nc3ccc4c(c3)CN(C(C)(C)C)S4(=O)=O)c3c(=O)[nH]ccc32)CO1)C(C)(C)C` [Example 19-2, (2S,5S)-N-tert-butyl-5-{3-[(2-tert-butyl-1,1-dioxido-2,3-dihydro-1,2-benzisothiazol-5-yl)amino]-4-oxo-4,5-dihydro-1H-pyrazolo[4,3-c]pyridin-1-yl}-5-(cyanomethyl)-N-methyltetrahydro-2H-pyran-2-carboxamide], the IC50 in assay [1] was 2.07 nM; in assay [2], 0.1 nM.

As to `CS(=O)(=O)c1ccc(Nc2nn(C3(CC#N)CCN(c4ccc(C(F)(F)F)cn4)CC3)c3cc[nH]c(=O)c23)cc1` [Example 15-4, 2-(4-(3-((4-(methylsulfonyl)phenyl)amino)-4-oxo-4,5-dihydro-1H-pyrazolo[4,3-c]pyridin-1-yl)-1-(5 (trifluoromethyl)pyridin-2-yl)piperidin-4-yl)acetonitrile], the values for the half-maximal inhibitory concentration (IC50) in assay [1] and in assay [2] were 0.55 nM and 0.2 nM, respectively.
